± gives the standard deviation of the averaged measurements.
Assays:
SW620 MTHFD2-/- = assay: cell viability relative to vehicle (resazurin, 96 h); higher = more viable; conditions: base medium: RPMI + dialysed FBS
Description: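 SW620 WT or MTHFD2-/- cells were treated for 96 h with a compound dilution series (log10 M) in RPMI with normal or dialysed FBS. Viability was read by resazurin and is given as % of vehicle.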

SW620 = assay: cell viability relative to lowest-dose well (resazurin, 96 h); higher = more viable; conditions: RPMI + 10% FBS
Procedure, shortened: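 Compounds from 10 mM DMSO stocks were dispensed as dilution series onto HCT116 (500 cells/well) or SW620 (1,000 cells/well) cells growing in 384-well plates in 50 µl RPMI, 10% FBS and a metabolite supplement. Plates were incubated 96 h at 37 °C, 5% CO2, then resazurin (10 µg ml^−1) was added and its conversion to resorufin read by fluorescence at 595 nm after 5 h. Viability is shown as percent of the lowest-dose well for independent replicate cultures. Viability was read by resazurin-to-resorufin conversion and normalised to the lowest-dose vehicle well (=100%).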

Cc1[nH]nc2c1C(c1cc(CO)cc(-c3ccccc3)c1)(C(C)C)C(C#N)=C(N)O2 (stereo not given) [SHIN1]
SW620 MTHFD2-/-
Conditions | cell viability [%]
log10 compound concentration (M): -5, supplement / serum: Hypoxanthine | 88.2 ± 9
log10 compound concentration (M): -5, supplement / serum: Hypoxanthine+Sodium Formate | 91.8 ± 12
log10 compound concentration (M): -5, supplement / serum: Sodium Formate | 83.5 ± 11
log10 compound concentration (M): -5, supplement / serum: Vehicle | 12.1 ± 2.5
log10 compound concentration (M): -5.47712, supplement / serum: Hypoxanthine | 102 ± 8.9
log10 compound concentration (M): -5.47712, supplement / serum: Hypoxanthine+Sodium Formate | 109 ± 5.6
log10 compound concentration (M): -5.47712, supplement / serum: Sodium Formate | 104 ± 7
log10 compound concentration (M): -5.47712, supplement / serum: Vehicle | 13.6 ± 1
log10 compound concentration (M): -5.95424, supplement / serum: Hypoxanthine | 105 ± 8.2
log10 compound concentration (M): -5.95424, supplement / serum: Hypoxanthine+Sodium Formate | 107 ± 6.6
log10 compound concentration (M): -5.95424, supplement / serum: Sodium Formate | 99.9 ± 4.8
log10 compound concentration (M): -5.95424, supplement / serum: Vehicle | 13.9 ± 1.6
log10 compound concentration (M): -6.43136, supplement / serum: Hypoxanthine | 103 ± 1.6
log10 compound concentration (M): -6.43136, supplement / serum: Hypoxanthine+Sodium Formate | 109 ± 4
log10 compound concentration (M): -6.43136, supplement / serum: Sodium Formate | 102 ± 4.2
log10 compound concentration (M): -6.43136, supplement / serum: Vehicle | 14.8 ± 1.4
log10 compound concentration (M): -6.90849, supplement / serum: Hypoxanthine | 101 ± 5.4
log10 compound concentration (M): -6.90849, supplement / serum: Hypoxanthine+Sodium Formate | 104 ± 4.4
log10 compound concentration (M): -6.90849, supplement / serum: Sodium Formate | 108 ± 3.8
log10 compound concentration (M): -6.90849, supplement / serum: Vehicle | 16.4 ± 1.8
log10 compound concentration (M): -7.38561, supplement / serum: Hypoxanthine | 88.3 ± 9.3
log10 compound concentration (M): -7.38561, supplement / serum: Hypoxanthine+Sodium Formate | 86.8 ± 6.8
log10 compound concentration (M): -7.38561, supplement / serum: Sodium Formate | 85.4 ± 4.3
log10 compound concentration (M): -7.38561, supplement / serum: Vehicle | 14 ± 0.95
log10 compound concentration (M): -7.86273, supplement / serum: Hypoxanthine | 92.2 ± 10
log10 compound concentration (M): -7.86273, supplement / serum: Hypoxanthine+Sodium Formate | 99.9 ± 8.4
log10 compound concentration (M): -7.86273, supplement / serum: Sodium Formate | 90.9 ± 5.5
log10 compound concentration (M): -7.86273, supplement / serum: Vehicle | 27.1 ± 3
log10 compound concentration (M): -8.33985, supplement / serum: Hypoxanthine | 101 ± 5.1
log10 compound concentration (M): -8.33985, supplement / serum: Hypoxanthine+Sodium Formate | 102 ± 2.4
log10 compound concentration (M): -8.33985, supplement / serum: Sodium Formate | 99.8 ± 4.9
log10 compound concentration (M): -8.33985, supplement / serum: Vehicle | 47.3 ± 3.7
log10 compound concentration (M): -8.81697, supplement / serum: Hypoxanthine | 101 ± 8
log10 compound concentration (M): -8.81697, supplement / serum: Hypoxanthine+Sodium Formate | 103 ± 7.2
log10 compound concentration (M): -8.81697, supplement / serum: Sodium Formate | 99 ± 6.2
log10 compound concentration (M): -8.81697, supplement / serum: Vehicle | 65.1 ± 3.5
log10 compound concentration (M): -9.29409, supplement / serum: Hypoxanthine | 96.8 ± 6
log10 compound concentration (M): -9.29409, supplement / serum: Hypoxanthine+Sodium Formate | 99.9 ± 2.3
log10 compound concentration (M): -9.29409, supplement / serum: Sodium Formate | 97.1 ± 4.1
log10 compound concentration (M): -9.29409, supplement / serum: Vehicle | 85.7 ± 3.4
log10 compound concentration (M): -9.77121, supplement / serum: Hypoxanthine | 102 ± 6
log10 compound concentration (M): -9.77121, supplement / serum: Hypoxanthine+Sodium Formate | 105 ± 8
log10 compound concentration (M): -9.77121, supplement / serum: Sodium Formate | 98.8 ± 5.4
log10 compound concentration (M): -9.77121, supplement / serum: Vehicle | 92.1 ± 5.2

cell viability [%], SW620
Conditions | metabolite supplement: 1mM sodium formate | metabolite supplement: 50uM thymidine | metabolite supplement: 50uM thymidine + 1mM sodium formate | metabolite supplement: 50uM thymidine + 250uM hypoxanthine | metabolite supplement: 250uM hypoxanthine | metabolite supplement: vehicle
0.001 µM | 100 | 100 | 100 | 100 | 100 | 100
0.01 µM | 99.57 ± 0.81 | 98.9 ± 3.2 | 102 ± 4.5 | 103 ± 6.6 | 102 ± 2.9 | 100 ± 3.3
0.0233 µM | 98.7 ± 2.5 | 99.2 ± 3.3 | 102 ± 5.4 | 103 ± 6.7 | 96.7 ± 3.4 | 95 ± 4
0.0541 µM | 98.5 ± 1.8 | 102 ± 4.5 | 104 ± 3.7 | 103 ± 6.3 | 101 ± 1.5 | 98.63 ± 0.57
0.126 µM | 97.4 ± 3 | 102 ± 4.4 | 104 ± 4.7 | 103 ± 3.7 | 101 ± 1.7 | 97.1 ± 4
0.293 µM | 96.93 ± 0.47 | 99.6 ± 2.2 | 101 ± 4.7 | 105 ± 6.2 | 98.8 ± 5.2 | 95 ± 4.8
0.682 µM | 95.3 ± 1.8 | 96 ± 5.7 | 103 ± 3.1 | 104 ± 5.8 | 98.8 ± 3.3 | 88.6 ± 5.6
1.59 µM | 94.8 ± 1.8 | 85.5 ± 6.5 | 100 ± 4.4 | 108 ± 10 | 98.8 ± 5.5 | 82.9 ± 6.3
3.69 µM | 92.3 ± 1.8 | 75 ± 5.8 | 98.1 ± 5.1 | 104 ± 3.6 | 96.4 ± 3 | 72.3 ± 4.8
8.6 µM | 89.6 ± 0.95 | 69.3 ± 4.3 | 95.2 ± 3.3 | 102 ± 7.9 | 93.9 ± 4.7 | 68 ± 2.6
20 µM | 78.2 ± 8.7 | 66.5 ± 6.1 | 83.8 ± 6.6 | 90.8 ± 7.1 | 84.8 ± 11 | 66 ± 3.5

From the supplement of paper PMC10132981, “Formate overflow drives toxic folate trapping in MTHFD1 inhibited cancer cells” (Nature Metabolism, 2023)
